Source: ChEMBL document CHEMBL1909046, “DrugMatrix in vitro pharmacology data”

Legend:
[1] = target: T1, Alpha-1D adrenergic receptor (Homo sapiens, UniProt P25100); type: cell membranes, HEK293, Membrane; conditions: hek293; further: in other assays of this panel Not Active means under 50% inhibition at 10 µM
T1 sequence (P25100 whole entry): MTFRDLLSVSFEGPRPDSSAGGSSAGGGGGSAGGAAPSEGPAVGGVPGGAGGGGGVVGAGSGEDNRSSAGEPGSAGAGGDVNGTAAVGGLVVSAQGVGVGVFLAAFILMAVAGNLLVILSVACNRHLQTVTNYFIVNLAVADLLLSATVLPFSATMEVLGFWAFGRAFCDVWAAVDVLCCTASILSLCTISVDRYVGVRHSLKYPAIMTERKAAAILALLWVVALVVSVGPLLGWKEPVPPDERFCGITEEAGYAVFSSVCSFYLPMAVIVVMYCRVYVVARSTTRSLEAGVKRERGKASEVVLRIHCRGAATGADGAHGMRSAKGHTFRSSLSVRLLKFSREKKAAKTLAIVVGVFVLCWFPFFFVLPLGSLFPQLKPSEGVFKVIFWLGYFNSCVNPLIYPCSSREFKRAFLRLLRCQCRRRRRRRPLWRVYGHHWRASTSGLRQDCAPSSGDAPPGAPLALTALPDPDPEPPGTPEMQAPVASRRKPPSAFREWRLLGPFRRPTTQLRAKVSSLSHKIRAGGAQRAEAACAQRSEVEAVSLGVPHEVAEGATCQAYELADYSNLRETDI

[2] = target: Sodium-dependent dopamine transporter (Homo sapiens, UniProt Q01959); assay: DRUGMATRIX: Dopamine Transporter radioligand binding (ligand: [125I] RTI-55); type: cell membranes, CHO-K1, Membrane; conditions: Not Active = under 50% inhibition at 10 µM
Chain of Sodium-dependent dopamine transporter (Q01959 whole entry): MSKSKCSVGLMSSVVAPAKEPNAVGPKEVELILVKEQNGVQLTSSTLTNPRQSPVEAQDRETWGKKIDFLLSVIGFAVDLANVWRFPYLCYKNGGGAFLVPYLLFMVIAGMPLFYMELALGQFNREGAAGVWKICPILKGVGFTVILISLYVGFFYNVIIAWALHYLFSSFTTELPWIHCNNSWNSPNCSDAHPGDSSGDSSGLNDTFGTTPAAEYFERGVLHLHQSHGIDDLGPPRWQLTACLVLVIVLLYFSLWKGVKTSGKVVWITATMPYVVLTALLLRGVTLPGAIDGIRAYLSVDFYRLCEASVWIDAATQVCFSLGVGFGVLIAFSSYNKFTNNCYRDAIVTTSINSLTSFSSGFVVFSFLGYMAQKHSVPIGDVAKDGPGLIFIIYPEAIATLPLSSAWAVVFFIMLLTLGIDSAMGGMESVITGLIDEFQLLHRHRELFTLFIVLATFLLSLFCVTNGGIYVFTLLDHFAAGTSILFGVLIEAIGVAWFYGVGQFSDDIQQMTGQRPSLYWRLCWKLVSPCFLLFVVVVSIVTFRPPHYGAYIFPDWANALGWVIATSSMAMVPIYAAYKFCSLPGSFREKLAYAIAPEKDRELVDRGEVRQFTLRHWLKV

[3] = target: T2, 3-hydroxy-3-methylglutaryl-coenzyme A reductase (Homo sapiens, UniProt P04035); parameters: species or system Escherichia coli;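 further: enzyme inhibition assay of HMG-CoA reductase using radiolabeled [14C]HMG-CoA as substrate; in other assays of this panel Not Active means under 50% inhibition at 10 µM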
T2 sequence (P04035 whole entry): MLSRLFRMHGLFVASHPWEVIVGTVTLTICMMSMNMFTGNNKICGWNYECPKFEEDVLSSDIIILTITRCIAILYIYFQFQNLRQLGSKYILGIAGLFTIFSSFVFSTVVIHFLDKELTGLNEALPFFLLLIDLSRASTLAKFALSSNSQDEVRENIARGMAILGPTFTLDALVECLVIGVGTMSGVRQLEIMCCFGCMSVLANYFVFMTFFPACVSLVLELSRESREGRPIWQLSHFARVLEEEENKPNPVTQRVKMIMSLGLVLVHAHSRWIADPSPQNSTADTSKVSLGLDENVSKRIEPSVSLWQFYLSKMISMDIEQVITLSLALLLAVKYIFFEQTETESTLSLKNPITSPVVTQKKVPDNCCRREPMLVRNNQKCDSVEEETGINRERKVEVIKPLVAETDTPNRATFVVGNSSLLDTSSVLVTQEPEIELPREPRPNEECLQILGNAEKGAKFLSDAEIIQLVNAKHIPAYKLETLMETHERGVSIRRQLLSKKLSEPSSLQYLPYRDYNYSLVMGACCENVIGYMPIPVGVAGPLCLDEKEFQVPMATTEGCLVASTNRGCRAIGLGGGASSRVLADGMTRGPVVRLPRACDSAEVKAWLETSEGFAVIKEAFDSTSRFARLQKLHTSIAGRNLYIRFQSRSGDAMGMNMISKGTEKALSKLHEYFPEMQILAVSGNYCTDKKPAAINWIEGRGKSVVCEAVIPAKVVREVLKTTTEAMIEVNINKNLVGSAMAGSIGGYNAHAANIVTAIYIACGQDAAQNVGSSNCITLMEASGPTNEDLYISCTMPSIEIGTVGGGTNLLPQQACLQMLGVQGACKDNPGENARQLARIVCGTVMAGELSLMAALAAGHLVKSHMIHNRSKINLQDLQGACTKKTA

[4] = target: Receptor tyrosine-protein kinase erbB-2 (Homo sapiens, UniProt P04626); assay: biochemical; type: cell-based, Insect cells;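 further: inhibition of HER2 kinase enzyme activity, measured with Poly(Glu:Tyr) as the phosphorylation substrate; in other assays of this panel Not Active means under 50% inhibition at 10 µM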
[5] = target: Tyrosine-protein kinase Lck (Homo sapiens, UniProt P06239); assay: DRUGMATRIX: Protein Tyrosine Kinase, LCK enzyme inhibition (substrate: Poly(Glu:Tyr)); type: cell-based, Insect cells; conditions: Not Active = under 50% inhibition at 10 µM
Chain of Tyrosine-protein kinase Lck (P06239 whole entry): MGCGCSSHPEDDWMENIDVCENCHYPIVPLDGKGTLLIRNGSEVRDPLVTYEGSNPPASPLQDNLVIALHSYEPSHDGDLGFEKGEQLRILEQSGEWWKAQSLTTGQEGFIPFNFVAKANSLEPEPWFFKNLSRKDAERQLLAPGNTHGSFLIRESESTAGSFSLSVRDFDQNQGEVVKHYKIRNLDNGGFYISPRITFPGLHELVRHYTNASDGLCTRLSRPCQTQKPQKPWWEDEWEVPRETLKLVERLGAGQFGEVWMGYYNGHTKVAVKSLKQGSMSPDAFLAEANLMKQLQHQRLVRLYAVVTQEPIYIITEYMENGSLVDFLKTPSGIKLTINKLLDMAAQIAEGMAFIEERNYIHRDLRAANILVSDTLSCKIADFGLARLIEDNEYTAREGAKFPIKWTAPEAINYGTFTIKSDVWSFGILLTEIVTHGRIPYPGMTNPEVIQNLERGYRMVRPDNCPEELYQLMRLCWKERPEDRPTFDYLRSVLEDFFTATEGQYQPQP

Molecule	IC50 [1]	IC50 ([2]; cho-k1)	IC50 [3]	IC50 ([4]; insect cells)	IC50 ([5]; insect cells)	further results
CC(C)CN(C[C@@H](O)[C@H](Cc1ccccc1)NC(=O)O[C@H]1CCOC1)S(=O)(=O)c1ccc(N)cc1	Not Active	Not Active	Not Active	Not Active	Not Active	
c1ccc(Nc2ccc(Nc3ccccc3)cc2)cc1	Not Active	Not Active	Not Active	Not Active	Not Active	
COc1cc2c3cc1Oc1cc(ccc1O)C[C@@H]1c4c(cc(OC)c(O)c4Oc4ccc(cc4)C[C@@H]3N(C)CC2)CC[N+]1(C)C.[Cl-]	Not Active	Not Active	Not Active	Not Active	Not Active	
NC(=O)N1c2ccccc2CCc2ccccc21	Not Active	Not Active	Not Active	Not Active	Not Active	
O=C1CC[C@@H](N2C(=O)c3ccccc3C2=O)C(=O)N1	Not Active	Not Active	Not Active	Not Active	Not Active	
Cc1onc(O)c1CC(N)C(=O)O (racemic) [(R,S)-AMPA]	Not Active	Not Active	Not Active	Not Active	Not Active	
Cc1ccc2cc3c(ccc4ccccc43)c3c2c1CC3 [3-METHYLCHOLANTHRENE]	Not Active	Not Active	Not Active	Not Active		IC50 ([5]; read-out: IC50): 55.5 µM
CC[C@@]1(O)C[C@H](O[C@H]2C[C@H](N(C)C)[C@H](O[C@H]3C[C@H](O)[C@H](O[C@H]4CCC(=O)[C@H](C)O4)[C@H](C)O3)[C@H](C)O2)c2c(cc3c(c2O)C(=O)c2c(O)cccc2C3=O)[C@H]1C(=O)OC [ACLARUBICIN]	Not Active	Not Active	Not Active	Not Active	Not Active	
Nc1nc2c(ncn2COCCO)c(=O)[nH]1 [ACYCLOVIR]	Not Active	Not Active	Not Active	Not Active	Not Active	
Cc1c(C)c2c(c(C)c1O)CC[C@@](C)(CCC[C@H](C)CCC[C@H](C)CCCC(C)C)O2 [ALPHA-TOCOPHEROL]	Not Active	Not Active	Not Active	Not Active	Not Active	
CN(C)c1nc(N(C)C)nc(N(C)C)n1 [ALTRETAMINE]	Not Active	Not Active	Not Active	Not Active	Not Active	
Nc1c(Br)cc(Br)cc1CN[C@H]1CC[C@H](O)CC1 [AMBROXOL]	Not Active	Not Active	Not Active	Not Active	Not Active	
NCCCCCC(=O)O [AMINOCAPROIC ACID]	Not Active	Not Active	Not Active	Not Active	Not Active	
CCC1(c2ccc(N)cc2)CCC(=O)NC1=O (centres undefined) [AMINOGLUTETHIMIDE]	Not Active	Not Active	Not Active	Not Active	Not Active	
Cc1ccc(/N=C/N(C)/C=N/c2ccc(C)cc2C)c(C)c1 [AMITRAZ]	Not Active	Not Active	Not Active	Not Active	Not Active	
CCOC(=O)C1=C(COCCN)NC(C)=C(C(=O)OC)C1c1ccccc1Cl (centres undefined) [AMLODIPINE]	Not Active		Not Active	Not Active	Not Active	
COc1ccc(C[C@H]2NC[C@H](O)[C@H]2OC(C)=O)cc1 [ANISOMYCIN]	Not Active	Not Active	Not Active	Not Active	Not Active	Ki [1]: Not Active; Ki ([2]; cho-k1): Not Active; Ki [3]: Not Active; Ki ([4]; insect cells): Not Active; Ki ([5]; insect cells): Not Active
Nc1ncn([C@@H]2O[C@H](CO)[C@@H](O)[C@H]2O)c(=O)n1 [AZACITIDINE]	Not Active	Not Active	Not Active	Not Active	Not Active	

Molecule	IC50 [1]	IC50 ([2]; cho-k1)	IC50 [3]	IC50 ([4]; insect cells)	IC50 ([5]; insect cells)	further results
CN(C)C(=O)Oc1cc(OC(=O)N(C)C)cc(C(O)CNC(C)(C)C)c1 (centres undefined) [BAMBUTEROL]	Not Active	Not Active	Not Active	Not Active	Not Active	
c1ccc2c(c1)c1cccc3ccc4cccc2c4c31 [BENZO[E]PYRENE]	Not Active	Not Active	Not Active	Not Active	Not Active	
CNCCc1ccccn1 [BETAHISTINE]	Not Active	Not Active	Not Active	Not Active	Not Active	
CC(C)C(Br)C(=O)NC(N)=O (centres undefined) [BROMISOVALUM]	Not Active	Not Active	Not Active	Not Active	Not Active	
CCCC1O[C@@H]2C[C@H]3[C@@H]4CCC5=CC(=O)C=C[C@]5(C)[C@H]4[C@@H](O)C[C@]3(C)[C@]2(C(=O)CO)O1 (some centres undefined) [BUDESONIDE]	Not Active	Not Active	Not Active	Not Active	Not Active	
CC(NC(C)(C)C)C(=O)c1cccc(Cl)c1 (centres undefined) [BUPROPION]	Not Active		Not Active	Not Active	Not Active	
CN(Cc1ccc(C(C)(C)C)cc1)Cc1cccc2ccccc12 [BUTENAFINE]	Not Active	Not Active	Not Active	Not Active	Not Active	
C[C@H](CS)C(=O)N1CCC[C@H]1C(=O)O [CAPTOPRIL]	Not Active	Not Active	Not Active	Not Active	Not Active	
Cc1ccc(-c2cc(C(F)(F)F)nn2-c2ccc(S(N)(=O)=O)cc2)cc1 [CELECOXIB]	Not Active		Not Active	Not Active	Not Active	IC50 ([2]; read-out: IC50): 2.43 µM; Ki ([2]; read-out: Ki): 1.93 µM
O=C(O)CCCc1ccc(N(CCCl)CCCl)cc1 [CHLORAMBUCIL]	Not Active	Not Active	Not Active	Not Active	Not Active	
CN(C)CCCN1c2ccccc2Sc2ccc(Cl)cc21 [CHLORPROMAZINE]			Not Active		Not Active	IC50 ([4]; read-out: IC50): 19.4 µM
C[C@H](CCC(=O)O)[C@H]1CC[C@H]2[C@@H]3[C@H](O)C[C@@H]4C[C@H](O)CC[C@]4(C)[C@H]3C[C@H](O)[C@]12C [CHOLIC ACID]	Not Active	Not Active	Not Active	Not Active	Not Active	
CNCCCN1c2ccccc2CCc2ccccc21 [DESIPRAMINE]	Not Active		Not Active	Not Active	Not Active	
COc1cc2nc(N3CCN(C(=O)C4COc5ccccc5O4)CC3)nc(N)c2cc1OC (centres undefined) [DOXAZOSIN]			Not Active	Not Active	Not Active	
CCCN1C[C@H](CSC)C[C@@H]2c3cccc4[nH]cc(c34)C[C@H]21 [PERGOLIDE]		Not Active	Not Active	Not Active	Not Active	
Cc1ccc(N(CC2=NCCN2)c2cccc(O)c2)cc1 [PHENTOLAMINE]		Not Active	Not Active	Not Active	Not Active	
CADMIUM ACETATE	Not Active	Not Active	Not Active			Ki [1]: Not Active; Ki ([2]; cho-k1): Not Active; Ki [3]: Not Active; IC50 ([4]; insect cells, read-out: IC50): 1.19 µM
